Measurements from patent publication US20080207522A1, “Antimicrobial Peptides” (priority 2004, published 2008).

Legend:
[1] = system: Pseudomonas aeruginosa strain H1001 fliC::luxCDABE; test: Luminescence-based assay for the non-cleaved (bound) peptides on cellulose membranes; assay type: cell-based; conditions: for Luminescence at the given time in minutes: 0 / Luminescence at the given time in minutes: 20 / Luminescence at the given time in minutes: 40 / Luminescence at the given time in minutes: 60 / Luminescence at the given time in minutes: 80 / Luminescence at the given time in minutes: 100 / Luminescence at the given time in minutes: 120 / Luminescence at the given time in minutes: 180 / Luminescence at the given time in minutes: 240: cellulose-bound peptide; for Luminescence at the given time in minutes: 0: 0 min; for Luminescence at the given time in minutes: 20: 20 min; for Luminescence at the given time in minutes: 40: 40 min; for Luminescence at the given time in minutes: 60: 60 min; for Luminescence at the given time in minutes: 80: 80 min; for Luminescence at the given time in minutes: 100: 100 min; for Luminescence at the given time in minutes: 120: 120 min; for Luminescence at the given time in minutes: 180: 180 min; for Luminescence at the given time in minutes: 240: 240 min; for Activity Class bound: uncleaved cellulose-bound peptides
Procedure, shortened: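 Peptides remained bound to cellulose spots, which were ethanol-washed and equilibrated in 100 mM Tris pH 7.3. Constitutively lux-expressing P. aeruginosa (OD600 0.35 culture diluted 1:25) added in 10 mM Tris-HCl pH 7.3, 20 mM glucose at 37° C. Luminescence (RLU) followed over 14 time points; peptides binned into six activity classes.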

[2] = system: Pseudomonas aeruginosa strain H1001; test: Assay for the cleaved (free, soluble) peptides from cellulose support, luminescence killing assay; assay type: cell-based; parameters: key: 1: Peptides showing stronger killing than Bac2A at a 4 to 8-fold higher dilution; Peptides showing stronger killing compared to that of Bac2A at a 4-fold higher dilution; 3: Peptides similar to Bac2A; 4: Peptides similar to Bac2A at the highest concentration but demonstrating weaker killing at a 2-fold dilution; 5: Peptides giving very weak or no killing at a 2-fold dilution; 6: Peptides with weak killing activity at the highest concentration; conditions: free (cleaved) peptides, killing relative to Bac2A
Procedure, shortened: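 Cellulose-synthesized peptides (amidated C-terminus, two β-alanines) cleaved by ammonia, released from punched spots 30 min at 37 °C, then serially diluted. P. aeruginosa H1001 (constitutive fliC::luxCDABE) overnight culture diluted 1:500 in LB or 100 mM Tris pH 7.3/20 mM glucose. Killing followed as time-dependent luminescence loss at 37 °C.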

In the case of RRRVIVAVLARI [Bac046], the “Luminescence at the given time in minutes: 0” value (shortened to “Luminescence … in minutes: 0”) [1] was 4408 RLU, the “Luminescence at the given time in minutes: 20” value (shortened to “Luminescence … in minutes: 20”) [1] was 5904 RLU and the “Luminescence at the given time in minutes: 40” value (“Luminescence … in minutes: 40” below) [1] was 2345 RLU. For the same sequence, the “Luminescence at the given time in minutes: 60” value (from here on “Luminescence … 60”) [1] was 233 RLU, the “Luminescence at the given time in minutes: 80” value (shortened to “Luminescence … in minutes: 80”) [1] was 76 RLU and the “Luminescence at the given time in minutes: 100” value (“Luminescence … 100” below) [1] was 70 RLU. For the same sequence, the “Luminescence at the given time in minutes: 120” value (shortened to “Luminescence … 120”) [1] was 102 RLU, the “Luminescence at the given time in minutes: 180” value (“Luminescence … 180” for short) [1] was 48 RLU and the “Luminescence at the given time in minutes: 240” value (“Luminescence … 240” below) [1] was 53 RLU. The “Activity Class bound” value [1] was 3 (Peptides similar to Bac2A resulting in lux values of less than 500 after 240 min.) and the “Activity Class Soluble” value [2] was 3.
With RRVAIVVIARLR [Bac018] the “Luminescence … in minutes: 0” value [1] was 4966 RLU, the “Luminescence … in minutes: 20” value [1] was 6080 RLU and the “Luminescence … in minutes: 40” value [1] was 981 RLU. The “Luminescence … 60” value [1] was 82 RLU, the “Luminescence … in minutes: 80” value [1] was 44 RLU and the “Luminescence … 100” value [1] was 60 RLU. The “Luminescence … 120” value [1] was 62 RLU, the “Luminescence … 180” value [1] was 50 RLU and the “Luminescence … 240” value [1] was 39 RLU. The “Activity Class bound” value [1] was 2 (Peptides reducing lux values to between 500 and 1000 after 40 min.) and the “Activity Class Soluble” value [2] was 2.
With RRVIAIAVRRLV [Bac050] the “Luminescence … in minutes: 0” value [1] was 4803 RLU, the “Luminescence … in minutes: 20” value [1] was 6715 RLU and the “Luminescence … in minutes: 40” value [1] was 5157 RLU. For the same sequence, the “Luminescence … 60” value [1] was 4430 RLU, the “Luminescence … in minutes: 80” value [1] was 3915 RLU and the “Luminescence … 100” value [1] was 3428 RLU. For the same sequence, the “Luminescence … 120” value [1] was 3246 RLU, the “Luminescence … 180” value [1] was 3206 RLU and the “Luminescence … 240” value [1] was 3590 RLU. The “Activity Class bound” value [1] was 6 (Peptides having residual luminescence (lux) values greater than 3000 after 240 min.) and the “Activity Class Soluble” value [2] was 3.
In the case of RVLIAARVIRRV [Bac047], the “Luminescence … in minutes: 0” value [1] was 4733 RLU, the “Luminescence … in minutes: 20” value [1] was 6747 RLU and the “Luminescence … in minutes: 40” value [1] was 5100 RLU. The “Luminescence … 60” value [1] was 4770 RLU, the “Luminescence … in minutes: 80” value [1] was 4031 RLU and the “Luminescence … 100” value [1] was 3383 RLU. For the same sequence, the “Luminescence … 120” value [1] was 3012 RLU, the “Luminescence … 180” value [1] was 2829 RLU and the “Luminescence … 240” value [1] was 2615 RLU. The “Activity Class bound” value [1] was 5 (Peptides reducing luminescence (lux) values to between 1500 to 3000 after 240 min.) and the “Activity Class Soluble” value [2] was 3.
With RVLRVVRAAIRI [Bac035] the “Luminescence … in minutes: 0” value [1] was 5199 RLU, the “Luminescence … in minutes: 20” value [1] was 6461 RLU and the “Luminescence … in minutes: 40” value [1] was 4989 RLU. For the same sequence, the “Luminescence … 60” value [1] was 4389 RLU, the “Luminescence … in minutes: 80” value [1] was 4001 RLU and the “Luminescence … 100” value [1] was 3439 RLU. For the same sequence, the “Luminescence … 120” value [1] was 3162 RLU, the “Luminescence … 180” value [1] was 2456 RLU and the “Luminescence … 240” value [1] was 2577 RLU. The “Activity Class bound” value [1] was 5 (Peptides reducing luminescence (lux) values to between 1500 to 3000 after 240 min.) and the “Activity Class Soluble” value [2] was 5.
VARIVVRLIRAR [Bac013] was tested, and the “Luminescence … in minutes: 0” value [1] was 3890 RLU, the “Luminescence … in minutes: 20” value [1] was 6850 RLU and the “Luminescence … in minutes: 40” value [1] was 3930 RLU. The “Luminescence … 60” value [1] was 1584 RLU, the “Luminescence … in minutes: 80” value [1] was 494 RLU and the “Luminescence … 100” value [1] was 193 RLU. The “Luminescence … 120” value [1] was 111 RLU, the “Luminescence … 180” value [1] was 100 RLU and the “Luminescence … 240” value [1] was 66 RLU. The “Activity Class bound” value [1] was 3 (Peptides similar to Bac2A resulting in lux values of less than 500 after 240 min.) and the “Activity Class Soluble” value [2] was 3.
In the case of VIALRIAVRRVR [Bac045], the “Luminescence … in minutes: 0” value [1] was 4873 RLU, the “Luminescence … in minutes: 20” value [1] was 6105 RLU and the “Luminescence … in minutes: 40” value [1] was 2726 RLU. For the same sequence, the “Luminescence … 60” value [1] was 554 RLU, the “Luminescence … in minutes: 80” value [1] was 83 RLU and the “Luminescence … 100” value [1] was 61 RLU. For the same sequence, the “Luminescence … 120” value [1] was 37 RLU, the “Luminescence … 180” value [1] was 57 RLU and the “Luminescence … 240” value [1] was 35 RLU. The “Activity Class bound” value [1] was 3 (Peptides similar to Bac2A resulting in lux values of less than 500 after 240 min.) and the “Activity Class Soluble” value [2] was 3.
For VIALVRARVRRI [Bac049], the “Luminescence … in minutes: 0” value [1] was 4926 RLU, the “Luminescence … in minutes: 20” value [1] was 7239 RLU and the “Luminescence … in minutes: 40” value [1] was 5219 RLU. For the same sequence, the “Luminescence … 60” value [1] was 4106 RLU, the “Luminescence … in minutes: 80” value [1] was 3188 RLU and the “Luminescence … 100” value [1] was 2524 RLU. For the same sequence, the “Luminescence … 120” value [1] was 2059 RLU, the “Luminescence … 180” value [1] was 1687 RLU and the “Luminescence … 240” value [1] was 1794 RLU. For the same sequence, the “Activity Class bound” value [1] was 5 (Peptides reducing luminescence (lux) values to between 1500 to 3000 after 240 min.) and the “Activity Class Soluble” value [2] was 3.
With VILARRRVRIAV [Bac017] the “Luminescence … in minutes: 0” value [1] was 4219 RLU, the “Luminescence … in minutes: 20” value [1] was 7259 RLU and the “Luminescence … in minutes: 40” value [1] was 5041 RLU. The “Luminescence … 60” value [1] was 3136 RLU, the “Luminescence … in minutes: 80” value [1] was 1907 RLU and the “Luminescence … 100” value [1] was 1047 RLU. The “Luminescence … 120” value [1] was 578 RLU, the “Luminescence … 180” value [1] was 321 RLU and the “Luminescence … 240” value [1] was 214 RLU. The “Activity Class bound” value [1] was 3 (Peptides similar to Bac2A resulting in lux values of less than 500 after 240 min.) and the “Activity Class Soluble” value [2] was 5.
VIVRLAARRVRI [Bac028] was tested, and the “Luminescence … in minutes: 0” value [1] was 5001 RLU, the “Luminescence … in minutes: 20” value [1] was 6828 RLU and the “Luminescence … in minutes: 40” value [1] was 5315 RLU. The “Luminescence … 60” value [1] was 5037 RLU, the “Luminescence … in minutes: 80” value [1] was 4555 RLU and the “Luminescence … 100” value [1] was 4143 RLU. The “Luminescence … 120” value [1] was 3762 RLU, the “Luminescence … 180” value [1] was 3646 RLU and the “Luminescence … 240” value [1] was 4268 RLU. The “Activity Class bound” value [1] was 6 (Peptides having residual luminescence (lux) values greater than 3000 after 240 min.) and the “Activity Class Soluble” value [2] was 5.
For VLARVVARRIRI [Bac040], the “Luminescence … in minutes: 0” value [1] was 4220 RLU, the “Luminescence … in minutes: 20” value [1] was 6241 RLU and the “Luminescence … in minutes: 40” value [1] was 4269 RLU. The “Luminescence … 60” value [1] was 3951 RLU, the “Luminescence … in minutes: 80” value [1] was 3368 RLU and the “Luminescence … 100” value [1] was 2880 RLU. For the same sequence, the “Luminescence … 120” value [1] was 2761 RLU, the “Luminescence … 180” value [1] was 2300 RLU and the “Luminescence … 240” value [1] was 2415 RLU. For the same sequence, the “Activity Class bound” value [1] was 5 (Peptides reducing luminescence (lux) values to between 1500 to 3000 after 240 min.) and the “Activity Class Soluble” value [2] was 5.
For VLIRIRRVARAV [Bac008], the “Luminescence … in minutes: 0” value [1] was 3718 RLU, the “Luminescence … in minutes: 20” value [1] was 6695 RLU and the “Luminescence … in minutes: 40” value [1] was 5154 RLU. For the same sequence, the “Luminescence … 60” value [1] was 4426 RLU, the “Luminescence … in minutes: 80” value [1] was 3671 RLU and the “Luminescence … 100” value [1] was 3164 RLU. The “Luminescence … 120” value [1] was 2786 RLU, the “Luminescence … 180” value [1] was 2703 RLU and the “Luminescence … 240” value [1] was 2890 RLU. The “Activity Class bound” value [1] was 5 (Peptides reducing luminescence (lux) values to between 1500 to 3000 after 240 min.) and the “Activity Class Soluble” value [2] was 2.
In the case of VVIRAAIRRVRL [Bac038], the “Luminescence … in minutes: 0” value [1] was 5024 RLU, the “Luminescence … in minutes: 20” value [1] was 7158 RLU and the “Luminescence … in minutes: 40” value [1] was 5307 RLU. The “Luminescence … 60” value [1] was 4676 RLU, the “Luminescence … in minutes: 80” value [1] was 4112 RLU and the “Luminescence … 100” value [1] was 3323 RLU. The “Luminescence … 120” value [1] was 2739 RLU, the “Luminescence … 180” value [1] was 2466 RLU and the “Luminescence … 240” value [1] was 2576 RLU. The “Activity Class bound” value [1] was 5 (Peptides reducing luminescence (lux) values to between 1500 to 3000 after 240 min.) and the “Activity Class Soluble” value [2] was 5.
With VVRALRRIIARV [Bac048] the “Luminescence … in minutes: 0” value [1] was 5001 RLU, the “Luminescence … in minutes: 20” value [1] was 6505 RLU and the “Luminescence … in minutes: 40” value [1] was 5163 RLU. The “Luminescence … 60” value [1] was 4406 RLU, the “Luminescence … in minutes: 80” value [1] was 3824 RLU and the “Luminescence … 100” value [1] was 3470 RLU. The “Luminescence … 120” value [1] was 3423 RLU, the “Luminescence … 180” value [1] was 3268 RLU and the “Luminescence … 240” value [1] was 3694 RLU. For the same sequence, the “Activity Class bound” value [1] was 6 (Peptides having residual luminescence (lux) values greater than 3000 after 240 min.) and the “Activity Class Soluble” value [2] was 4.
